Legend:
Type in all cases: in vivo
[1] = test system: Abutilon theophrasti (ABUTH); test: Post-emergence herbicidal action, greenhouse pot test; details: Abutilon theophrasti, 504 h, rated visually after about 3 weeks vs untreated controls, 100% = plants have died; for pest or weed control at 1.25 g/ha: read-out: Post-emergence action at 1.25 g/ha against ABUTH in %; for pest or weed control at 5 g/ha: read-out: Post-emergence action at 5 g/ha against ABUTH in %; for pest or weed control at 20 g/ha: read-out: Post-emergence action at 20 g/ha against ABUTH in %
Outline: (§1)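 Activity was scored by eye about 3 weeks after treatment against untreated plants, where 100% means dead plants and 0% means no difference. Plants at the one-leaf stage received a foliar spray of WP or EC formulations in water plus 0.5% additive (600 l/ha, up to 20 g/ha). Plants were grown in sandy loam pots in a greenhouse for 2–3 weeks before spraying.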

[2] = test system: Amaranthus retroflexus (AMARE); test: as above; details: Amaranthus retroflexus, 504 h, rated visually after about 3 weeks vs untreated controls, 100% = plants have died; for pest or weed control at 1.25 g/ha: read-out: Post-emergence action at 1.25 g/ha against AMARE in %; for pest or weed control at 5 g/ha: read-out: Post-emergence action at 5 g/ha against AMARE in %; for pest or weed control at 20 g/ha: read-out: Post-emergence action at 20 g/ha against AMARE in %
Outline: as §1

[3] = test system: Avena fatua (AVEFA); test: as above; details: Avena fatua, 504 h, 20 g/ha, rated visually after about 3 weeks vs untreated controls, 100% = plants have died, read-out: Post-emergence action at 20 g/ha against AVEFA in %
Outline: as §1

[4] = test system: Lolium rigidum (LOLRI); test: as above; details: Lolium rigidum, 504 h, dosage 20 g/ha, read-out: Post-emergence action against LOLRI in %
Outline: as §1

[5] = test system: Pharbitis purpurea (PHBPU); test: as above; details: Ipomoea purpurea, 504 h, read-out: Post-emergence action against PHBPU in %; for pest or weed control at 1.25 g/ha: dosage 1.25 g/ha; for pest or weed control at 5 g/ha: dosage 5 g/ha; for pest or weed control at 20 g/ha: dosage 20 g/ha
Outline: as §1

[6] = test system: Polygonum convolvulus (POLCO); test: as above; details: Fallopia convolvulus, 504 h, read-out: Post-emergence action against POLCO in %
Outline: as §1

[7] = test system: Veronica persica (VERPE); test: as above; details: Veronica persica, 504 h, read-out: Post-emergence action against VERPE
Outline: as §1

[8] = test system: Viola tricolor (VIOTR); test: as above; details: Viola tricolor, 504 h, read-out: Post-emergence action against VIOTR
Outline: as §1

[9] = test system: Alopecurus myosuroides (ALOMY); test: Post-emergence herbicidal action, greenhouse pot test (also comparative test C); details: Alopecurus myosuroides, 504 h, rated visually after about 3 weeks vs untreated controls, 100% = plants have died; for pest or weed control at 5 g/ha: read-out: Post-emergence action at 5 g/ha against ALOMY in %; for pest or weed control at 20 g/ha: read-out: Post-emergence action at 20 g/ha against ALOMY in %
Outline: (§2)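 Visual rating against untreated controls, about 3 weeks after spraying, from 0% (like control) to 100% (plants dead). Weeds were treated at the one-leaf stage, 2–3 weeks after sowing in sandy loam, with aqueous WP/EC spray containing 0.5% additive at 600 l/ha. Doses were ≤20 g/ha, or ≤5 g/ha for comparative test C.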

[10] = test system: Echinochloa crus-galli (ECHCG); test: as above; details: for pest or weed control at 5 g/ha / pest or weed control at 20 g/ha: Echinochloa crus-galli, 504 h, read-out: Post-emergence action against ECHCG in %; for pest or weed control at 5 g/ha: dosage 5 g/ha; for pest or weed control at 20 g/ha: dosage 20 g/ha
Outline: as §2

[11] = test system: Matricaria inodora (MATIN); test: as above; details: Tripleurospermum inodorum, 504 h, read-out: Post-emergence action against MATIN in %; for pest or weed control at 1.25 g/ha: dosage 1.25 g/ha; for pest or weed control at 20 g/ha: dosage 20 g/ha
Outline: as §2

[12] = test system: Setaria viridis (SETVI); test: as above; details: Setaria viridis, 504 h; for pest or weed control at 20 g/ha: read-out: Post-emergence action against SETVI; for pest or weed control at 1.25 g/ha: dosage 1.25 g/ha; for pest or weed control at 1.25 g/ha / pest or weed control at 5 g/ha: read-out: Post-emergence action against SETVI in %; for pest or weed control at 5 g/ha: dosage 5 g/ha
Outline: as §2

[13] = test system: Triticum aestivum (TRZAS); test: Post-emergence crop plant compatibility, greenhouse pot test; details: 1.25 g/ha, vs untreated controls
Outline: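 Greenhouse pot test; post-emergence foliar spray at one-leaf stage, WP or EC in water + 0.5% additive, 600 l/ha. Visual rating after ~3 wk, % relative to untreated (0–100%).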

[14] = test system: Oryza sativa (ORYSA); test: Post-emergence crop plant compatibility, greenhouse pot test (also comparative test C); details: 1.25 g/ha, vs untreated controls
Outline: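 Visual damage versus untreated plants (0% = like control, 100% = plants died) was scored about 3 weeks after a post-emergence spray in greenhouse pots. Treatment: one-leaf stage, WP or EC in water at 600 l/ha with 0.5% additive; a/b/c mark different dosages on the same crop.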

Cn1c(C(F)(F)F)cc(=O)n(-c2cc(Oc3ccccc3OCC(=O)OCC3CCCO3)c(Cl)cc2F)c1=O (centres unmarked) [I.7-71, Tetrahydrofuran-2-ylmethyl (2-{2-chloro-4-fluoro-5-[3-methyl-2,6-dioxo-4-(trifluoromethyl)-3,6-dihydropyrimidin-1(2H)-yl]phenoxy}phenoxy)acetate]
pest or weed control at 1.25 g/ha [1]: 100% | pest or weed control at 5 g/ha [1]: 100% | pest or weed control at 20 g/ha [1]: 100% | pest or weed control at 1.25 g/ha [2]: 100% | pest or weed control at 5 g/ha [2]: 100% | pest or weed control at 20 g/ha [2]: 100% | pest or weed control at 20 g/ha [3]: 90% | pest or weed control at 20 g/ha [4]: 80% | pest or weed control at 1.25 g/ha [5]: 100% | pest or weed control at 5 g/ha [5]: 100% | pest or weed control at 20 g/ha [5]: 100% | pest or weed control at 5 g/ha ([6]; dosage 5 g/ha): 100% | pest or weed control at 20 g/ha ([6]; dosage 20 g/ha): 100% | pest or weed control at 1.25 g/ha ([7]; 1.25 g/ha): 100% | pest or weed control at 5 g/ha [7]: 100% | pest or weed control at 20 g/ha [7]: 100% | pest or weed control at 1.25 g/ha [8]: 100% | pest or weed control at 5 g/ha [8]: 100% | pest or weed control at 20 g/ha [8]: 100% | pest or weed control at 5 g/ha [9]: 80% | pest or weed control at 20 g/ha [9]: 80% | Post-emergence action at 1.25 g/ha against ECHCG in % ([10]; 1.25 g/ha, rated visually after about 3 weeks vs untreated controls, 100% = plants have died): 100% | pest or weed control at 5 g/ha [10]: 100% | pest or weed control at 20 g/ha [10]: 100% | pest or weed control at 1.25 g/ha [11]: 80% | pest or weed control at 20 g/ha [11]: 100% | pest or weed control at 20 g/ha [12]: 100% | pest or weed control at 1.25 g/ha [12]: 100% | pest or weed control at 5 g/ha [12]: 100% | Post-emergence action against TRZAS (crop plant compatibility) [13]: 0% | Post-emergence action against ORYSA (crop plant compatibility) [14]: 20%

Cn1c(C(F)(F)F)cc(=O)n(-c2cc(Oc3ccccc3OCC(=O)OCC[N+](=O)[O-])c(Cl)cc2F)c1=O [I.7-183, 2-Nitroethyl (2-{2-chloro-4-fluoro-5-[3-methyl-2,6-dioxo-4-(trifluoromethyl)-3,6-dihydropyrimidin-1(2H)-yl]phenoxy}phenoxy)acetate]
pest or weed control at 1.25 g/ha [1]: 100% | pest or weed control at 5 g/ha [1]: 100% | pest or weed control at 20 g/ha [1]: 100% | pest or weed control at 1.25 g/ha [2]: 100% | pest or weed control at 5 g/ha [2]: 100% | pest or weed control at 20 g/ha [2]: 100% | pest or weed control at 20 g/ha [3]: 90% | pest or weed control at 20 g/ha [4]: 80% | pest or weed control at 1.25 g/ha [5]: 80% | pest or weed control at 5 g/ha [5]: 100% | pest or weed control at 20 g/ha [5]: 100% | pest or weed control at 5 g/ha [7]: 100% | pest or weed control at 20 g/ha [7]: 100% | pest or weed control at 1.25 g/ha [8]: 100% | pest or weed control at 5 g/ha [8]: 100% | pest or weed control at 20 g/ha [8]: 100% | pest or weed control at 5 g/ha [9]: 80% | pest or weed control at 20 g/ha [9]: 100% | pest or weed control at 5 g/ha [10]: 100% | pest or weed control at 20 g/ha [10]: 100% | pest or weed control at 1.25 g/ha [11]: 80% | pest or weed control at 5 g/ha ([11]; dosage 5 g/ha): 100% | pest or weed control at 20 g/ha [11]: 100% | pest or weed control at 20 g/ha [12]: 100% | pest or weed control at 1.25 g/ha [12]: 100% | pest or weed control at 5 g/ha [12]: 100% | Post-emergence action against TRZAS (crop plant compatibility) [13]: 20% | Post-emergence action against ORYSA (crop plant compatibility) [14]: 0%

Reference: patent US20240025862A1, “SUBSTITUTED N-PHENYLURACILS AND SALTS THEREOF, AND USE THEREOF AS HERBICIDAL ACTIVE SUBSTANCES” (Bayer Aktiengesellschaft, priority 2020, published 2024)
